pKi: −log10 of the molar value. Like-named read-outs stand apart in the source and are kept apart here. Each block holds one molecule with its values, some of them ahead of it.
Target: NR2B-subtype NMDA receptors (Rattus norvegicus (Rat), UniProt P35439+Q00960)
Assay: Radioligand binding assay (3H Ro 25-6981 competition, rat forebrain membranes)
Details: 3H Ro 25-6981 (4 nM)
Procedure: Radioligand Binding Assay. Binding experiments to determine binding to NR2B-subtype NMDA receptors were performed on forebrains of 8-10 weeks old male Sprague Dawley rats (Harlan, Netherlands) using ^3H Ro 25-6981 (Mutel V; Buchy D; Klingelschmidt A; Messer J; Bleuel Z; Kemp J A; Richards J G. Journal of Neurochemistry, 1998, 70(5):2147-2155. Rats were decapitated without anesthesia using a Guillotine (approved by animal ethics committee) and the harvested brains were snap-frozen and stored at −80° C. for 3-6 months for membrane preparation.
For membrane preparation, rat forebrains were thawed on ice for 20 minutes in homogenization buffer composed of 50 mM KH2PO4 (pH adjusted to 7.4 with KOH), 1 mM EDTA, 0.005% Triton X 100 and protease inhibitor cocktail (Sigma Aldrich). Thawed brains were homogenized using a Dounce homogenizer and centrifuged at 48000×g for 20 min. The pellet was resuspended in cold buffer and homogenized again using a Dounce homogenizer. Subsequently, the homogenate was aliquoted, snap-frozen and stored at −80° C. for not more than 3-4 months.
To perform the competition binding assay, thawed membrane homogenate was added to each well of a 96-well plate (20 μg/well). The experimental compounds were serially diluted in 100% DMSO and added to each row of the assay plate to achieve desired compound concentrations, keeping the DMSO concentration in the assay plate at 1.33% of the final reaction volume. Next, ^3H Ro 25-6981 (4 nM) was added to the assay plate. After incubation for 1 hr at room temperature, the membrane bound radioligand was harvested on to GF/B filter plates (treated with 0.5% PEI for 1 hr at room temperature). The filter plates were dried at 50° C. for 20 mins, incubated with microscint 20 for 10 minutes and finally, the counts were read on TopCount (Perkin Elmer).

Chain of NR2B-subtype NMDA receptors (Q00960 27-1482, other chains not shown): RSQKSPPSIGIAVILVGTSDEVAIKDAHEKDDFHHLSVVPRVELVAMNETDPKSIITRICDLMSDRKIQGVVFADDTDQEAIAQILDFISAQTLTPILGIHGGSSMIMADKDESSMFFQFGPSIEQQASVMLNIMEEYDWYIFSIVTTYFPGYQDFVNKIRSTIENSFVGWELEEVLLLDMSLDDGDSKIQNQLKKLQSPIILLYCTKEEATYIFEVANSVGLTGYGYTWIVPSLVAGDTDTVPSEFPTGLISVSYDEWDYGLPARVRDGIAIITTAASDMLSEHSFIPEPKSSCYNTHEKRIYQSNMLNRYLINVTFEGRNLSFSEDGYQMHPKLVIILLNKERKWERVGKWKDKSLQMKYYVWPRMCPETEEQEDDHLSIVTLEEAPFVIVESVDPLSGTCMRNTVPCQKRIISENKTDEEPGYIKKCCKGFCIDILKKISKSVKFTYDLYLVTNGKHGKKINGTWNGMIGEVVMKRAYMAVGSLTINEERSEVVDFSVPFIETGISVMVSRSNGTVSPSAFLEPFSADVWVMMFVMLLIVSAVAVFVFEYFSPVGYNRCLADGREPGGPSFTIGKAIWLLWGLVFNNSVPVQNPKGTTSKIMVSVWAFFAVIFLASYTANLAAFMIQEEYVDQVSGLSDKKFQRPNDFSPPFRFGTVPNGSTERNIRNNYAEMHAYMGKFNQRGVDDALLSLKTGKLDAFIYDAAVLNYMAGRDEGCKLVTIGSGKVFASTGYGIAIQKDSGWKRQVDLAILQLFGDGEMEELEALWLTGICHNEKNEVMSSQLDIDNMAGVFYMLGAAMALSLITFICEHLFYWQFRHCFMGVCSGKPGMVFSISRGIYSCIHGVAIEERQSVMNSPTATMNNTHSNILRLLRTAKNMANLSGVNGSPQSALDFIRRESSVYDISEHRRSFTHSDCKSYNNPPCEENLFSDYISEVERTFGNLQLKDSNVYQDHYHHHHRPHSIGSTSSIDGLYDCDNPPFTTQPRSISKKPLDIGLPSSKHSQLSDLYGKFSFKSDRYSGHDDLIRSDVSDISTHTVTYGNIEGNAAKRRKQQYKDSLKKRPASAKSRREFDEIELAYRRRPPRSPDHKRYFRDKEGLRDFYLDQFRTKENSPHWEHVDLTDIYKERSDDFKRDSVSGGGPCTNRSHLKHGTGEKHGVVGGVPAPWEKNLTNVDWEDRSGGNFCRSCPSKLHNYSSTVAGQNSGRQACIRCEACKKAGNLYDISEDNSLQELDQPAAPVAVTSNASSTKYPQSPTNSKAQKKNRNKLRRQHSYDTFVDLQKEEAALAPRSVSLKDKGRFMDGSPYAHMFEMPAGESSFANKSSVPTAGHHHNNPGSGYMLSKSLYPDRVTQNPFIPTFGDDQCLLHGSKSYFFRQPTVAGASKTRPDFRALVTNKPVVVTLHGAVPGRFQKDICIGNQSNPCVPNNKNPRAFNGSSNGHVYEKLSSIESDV

pKi (P-1, read-out: NR2B Binding Ki): 6.52
Structure (SMILES): O=C1C(N2CCC(c3ccc(O)cc3)CC2)CON1Cc1ccc(F)cc1 (single isomer, unassigned) [Example 1, P-1, 2-(4-fluorobenzyl)-4-(4-(4-hydroxyphenyl)piperidin-1-yl)isoxazolidin-3-one]

pKi (listed as 1, P-2, read-out: NR2B Binding Ki): 8.39
Structure (SMILES): O=C1C(N2CCC(c3ccc(O)cc3)CC2)CON1Cc1ccc(F)cc1 (single isomer, unassigned) [Example 1, P-2, 2-(4-fluorobenzyl)-4-(4-(4-hydroxyphenyl)piperidin-1-yl)isoxazolidin-3-one]

pKi (listed as 2, P-1, read-out: NR2B Binding Ki): 6.95
Structure (SMILES): Cc1ccc(CN2OCC(N3CCC(c4ccc(O)cc4)CC3)C2=O)cc1 (single isomer, unassigned) [Example 2, P-1, 4-(4-(4-hydroxyphenyl)piperidin-1-yl)-2-(4-methylbenzyl)isoxazolidin-3-one]

pKi (listed as 5, P-1, read-out: NR2B Binding Ki): 6.84
Structure (SMILES): Cc1ccc(CN2OCCC(N3CC[C@@H](c4ccc(O)cc4)[C@H](F)C3)C2=O)cc1 (single isomer, unassigned) [Example 5, P-1]

pKi (listed as 5, P-2, read-out: NR2B Binding Ki): 8.36
Structure (SMILES): Cc1ccc(CN2OCCC(N3CC[C@@H](c4ccc(O)cc4)[C@H](F)C3)C2=O)cc1 (single isomer, unassigned) [Example 5, P-2]

pKi (listed as 6, P-1, read-out: NR2B Binding Ki): 8.19
Structure (SMILES): Cc1ccc(CN2OCCC(N3CCC(c4ccc(O)cn4)CC3)C2=O)cc1 (single isomer, unassigned) [Example 6, P-1, 4-(4-(5-hydroxypyridin-2-yl)piperidin-1-yl)-2-(4-methylbenzyl)-1,2-oxazinan-3-one]

pKi (listed as 6, P-2, read-out: NR2B Binding Ki): 8.09
Structure (SMILES): Cc1ccc(CN2OCCC(N3CCC(c4ccc(O)cn4)CC3)C2=O)cc1 (single isomer, unassigned) [Example 6, P-2, 4-(4-(5-hydroxypyridin-2-yl)piperidin-1-yl)-2-(4-methylbenzyl)-1,2-oxazinan-3-one]

pKi (listed as 7, P-1, read-out: NR2B Binding Ki): 6.90
Structure (SMILES): Cc1ccc(CN2OCCC(N3CC[C@H](c4ccc(O)cc4)[C@@H](F)C3)C2=O)cc1 (single isomer, unassigned) [Example 7, P-1]

pKi (listed as 7, P-2, read-out: NR2B Binding Ki): 8.30
Structure (SMILES): Cc1ccc(CN2OCCC(N3CC[C@H](c4ccc(O)cc4)[C@@H](F)C3)C2=O)cc1 (single isomer, unassigned) [Example 7, P-2]

pKi (listed as 8, P-1, read-out: NR2B Binding Ki): 7.24
Structure (SMILES): Cc1ccc(CN2OCCC(N3CCN(c4ccc(O)cn4)CC3)C2=O)cc1 (single isomer, unassigned) [Example 8, P-1, 4-(4-(5-hydroxypyridin-2-yl)piperazin-1-yl)-2-(4-methylbenzyl)-1,2-oxazinan-3-one]

pKi (listed as 8, P-2, read-out: NR2B Binding Ki): 7.73
Structure (SMILES): Cc1ccc(CN2OCCC(N3CCN(c4ccc(O)cn4)CC3)C2=O)cc1 (single isomer, unassigned) [Example 8, P-2, 4-(4-(5-hydroxypyridin-2-yl)piperazin-1-yl)-2-(4-methylbenzyl)-1,2-oxazinan-3-one]

pKi (listed as 9, P-1, read-out: NR2B Binding Ki): 6.86
Structure (SMILES): Cc1ccc(CN2OCC(N3CCC(c4ccc(O)cn4)CC3)C2=O)cc1 (single isomer, unassigned) [Example 9, P-1, 4-(4-(5-hydroxypyridin-2-yl)piperidin-1-yl)-2-(4-methylbenzyl)isoxazolidin-3-one]

pKi (listed as 9, P-2, read-out: NR2B Binding Ki): 7.92
Structure (SMILES): Cc1ccc(CN2OCC(N3CCC(c4ccc(O)cn4)CC3)C2=O)cc1 (single isomer, unassigned) [Example 9, P-2, 4-(4-(5-hydroxypyridin-2-yl)piperidin-1-yl)-2-(4-methylbenzyl)isoxazolidin-3-one]

pKi (listed as 10, P-2, read-out: NR2B Binding Ki): 7.97
Structure (SMILES): Cc1ccc(CN2OCC(N3CCN(c4ccc(O)cn4)CC3)C2=O)cc1 (single isomer, unassigned) [Example 10, P-2, 4-(4-(5-hydroxypyridin-2-yl)piperazin-1-yl)-2-(4-methylbenzyl)isoxazolidin-3-one]

pKi (listed as 11, P-1, read-out: NR2B Binding Ki): 8.51
Structure (SMILES): Cc1ccc(CN2OCCC(N3CCC(c4ccc(O)c(F)c4)C(F)C3)C2=O)cc1 (single isomer, unassigned) [Example 11, P-1, 4-(3-fluoro-4-(3-fluoro-4-hydroxyphenyl)piperidin-1-yl)-2-(4-methylbenzyl)-1,2-oxazinan-3-one]

pKi (listed as 11, P-2, read-out: NR2B Binding Ki): 7.41
Structure (SMILES): Cc1ccc(CN2OCCC(N3CCC(c4ccc(O)c(F)c4)C(F)C3)C2=O)cc1 (single isomer, unassigned) [Example 11, P-2, 4-(3-fluoro-4-(3-fluoro-4-hydroxyphenyl)piperidin-1-yl)-2-(4-methylbenzyl)-1,2-oxazinan-3-one]

pKi (listed as 12, P-1, read-out: NR2B Binding Ki): 8.41
Structure (SMILES): O=C1C(N2CC[C@@H](c3ccc(O)cc3)[C@H](F)C2)CCON1Cc1ccc(Cl)cc1 (single isomer, unassigned) [Example 12, P-1]

pKi (listed as 12, P-2, read-out: NR2B Binding Ki): 6.82
Structure (SMILES): O=C1C(N2CC[C@@H](c3ccc(O)cc3)[C@H](F)C2)CCON1Cc1ccc(Cl)cc1 (single isomer, unassigned) [Example 12, P-2]

pKi (listed as 13, P-1, read-out: NR2B Binding Ki): 6.44
Structure (SMILES): O=C1C(N2CCC(c3ccc(O)c(F)c3)C(F)C2)CCON1Cc1ccc(F)cc1 (single isomer, unassigned) [Example 13, P-1, 4-(3-fluoro-4-(3-fluoro-4-hydroxyphenyl)piperidin-1-yl)-2-(4-fluorobenzyl)-1,2-oxazinan-3-one]

pKi (listed as 13, P-2, read-out: NR2B Binding Ki): 8.39
Structure (SMILES): O=C1C(N2CCC(c3ccc(O)c(F)c3)C(F)C2)CCON1Cc1ccc(F)cc1 (single isomer, unassigned) [Example 13, P-2, 4-(3-fluoro-4-(3-fluoro-4-hydroxyphenyl)piperidin-1-yl)-2-(4-fluorobenzyl)-1,2-oxazinan-3-one]

pKi (listed as 14, P-1, read-out: NR2B Binding Ki): 7.01
Structure (SMILES): O=C1C(N2CCC(c3ccc(O)c(F)c3)C(F)C2)CCON1Cc1ccc(Cl)cc1 (single isomer, unassigned) [Example 14, P-1, 2-(4-chlorobenzyl)-4-(3-fluoro-4-(3-fluoro-4-hydroxyphenyl)piperidin-1-yl)-1,2-oxazinan-3-one]

pKi (listed as 14, P-2, read-out: NR2B Binding Ki): 8.55
Structure (SMILES): O=C1C(N2CCC(c3ccc(O)c(F)c3)C(F)C2)CCON1Cc1ccc(Cl)cc1 (single isomer, unassigned) [Example 14, P-2, 2-(4-chlorobenzyl)-4-(3-fluoro-4-(3-fluoro-4-hydroxyphenyl)piperidin-1-yl)-1,2-oxazinan-3-one]

pKi (listed as 15, P-1, read-out: NR2B Binding Ki): 6.41
Structure (SMILES): O=C1C(N2CC[C@@H](c3ccc(O)cc3)[C@H](F)C2)CCON1Cc1ccc(F)cc1 (single isomer, unassigned) [Example 15, P-1]

pKi (listed as 15, P-2, read-out: NR2B Binding Ki): 7.90
Structure (SMILES): O=C1C(N2CC[C@@H](c3ccc(O)cc3)[C@H](F)C2)CCON1Cc1ccc(F)cc1 (single isomer, unassigned) [Example 15, P-2]
